pIC50: −log10 of the molar value.
Tested on: G-401 tumor spheroids, viability % test/control
Experiment: Anticancer human tumor G-401 cell line growth inhibition;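 also: spheroids exposed to compound for 7 days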;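 as to viability, T/C: 100% = DMSO vehicle-treated spheroids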
Settings: spheroids with HUVEC and MSC; for pIC50: curve of first compound; for viability, T/C: stronger effect = lower value
Summary of the method: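 Complex tumor spheroids combined malignant cells with endothelial cells and mesenchymal stem cells. DNA-damaging drugs and DNA repair inhibitors were tested alone and in combination, at half-log dilutions down from clinical Cmax (top 10 microM if Cmax unknown), 0.25% DMSO final.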

[1] = second compound 0.003 µM, first compound 0.0316 µM
[2] = second compound 0.003 µM, first compound 0.1 µM
[3] = second compound 0.003 µM, first compound 0.316 µM
[4] = second compound 0.003 µM, first compound 1 µM
[5] = second compound 0.003 µM, first compound 3.16 µM
[6] = second compound 0.003 µM, first compound 10 µM
[7] = second compound 0.00949 µM, first compound 0.0316 µM
[8] = second compound 0.00949 µM, first compound 0.1 µM
[9] = second compound 0.00949 µM, first compound 0.316 µM
[10] = second compound 0.00949 µM, first compound 1 µM
[11] = second compound 0.00949 µM, first compound 3.16 µM
[12] = second compound 0.00949 µM, first compound 10 µM
[13] = second compound 0.03 µM, first compound 0.0316 µM
[14] = second compound 0.03 µM, first compound 0.1 µM
[15] = second compound 0.03 µM, first compound 0.316 µM
[16] = second compound 0.03 µM, first compound 1 µM
[17] = second compound 0.03 µM, first compound 3.16 µM
[18] = second compound 0.03 µM, first compound 10 µM
[19] = second compound 0.0949 µM, first compound 0.0316 µM
[20] = second compound 0.0949 µM, first compound 0.1 µM
[21] = second compound 0.0949 µM, first compound 0.316 µM
[22] = second compound 0.0949 µM, first compound 1 µM
[23] = second compound 0.0949 µM, first compound 3.16 µM
[24] = second compound 0.0949 µM, first compound 10 µM
[25] = second compound 0.3 µM, first compound 0.0316 µM
[26] = second compound 0.3 µM, first compound 0.1 µM
[27] = second compound 0.3 µM, first compound 0.316 µM
[28] = second compound 0.3 µM, first compound 1 µM
[29] = second compound 0.3 µM, first compound 3.16 µM
[30] = second compound 0.3 µM, first compound 10 µM

| Structure (SMILES) | pIC50 (second compound 0.003 µM) | pIC50 (second compound 0.00949 µM) | pIC50 (second compound 0.03 µM) | pIC50 (second compound 0.0949 µM) | pIC50 (second compound 0.3 µM) | viability, T/C [1] [%] | viability, T/C [2] [%] | viability, T/C [3] [%] | viability, T/C [4] [%] | viability, T/C [5] [%] | viability, T/C [6] [%] | viability, T/C [7] [%] | viability, T/C [8] [%] | viability, T/C [9] [%] | viability, T/C [10] [%] | viability, T/C [11] [%] | viability, T/C [12] [%] | viability, T/C [13] [%] | viability, T/C [14] [%] | viability, T/C [15] [%] | also measured |
| --- | --- | --- | --- | --- | --- | --- | --- | --- | --- | --- | --- | --- | --- | --- | --- | --- | --- | --- | --- | --- | --- |
| CC(C)n1c(=O)n(C)c2cnc3cc(F)c(-c4ccc(OCCCN5CCCCC5)nc4)cc3c21 + CC[C@@]1(O)C(=O)OCc2c1cc1n(c2=O)Cc2cc3c(CN(C)C)c(O)ccc3nc2-1 | > 7.50 | > 7.50 | > 7.50 | > 7.50 | > 7.50 | 18.3 | 20.1 | 19.8 | 22.7 | 16.1 | 10.8 | 12.9 | 15.5 | 14.9 | 14.6 | 12.9 | 7.82 | 13.8 | 11.8 | 13.9 | viability, T/C [16]: 15.1%; viability, T/C [17]: 9.27%; viability, T/C [18]: 4.89%; viability, T/C [19]: 10.2%; viability, T/C [20]: 9.71%; viability, T/C [21]: 10.3%; viability, T/C [22]: 12.7%; viability, T/C [23]: 8.85%; viability, T/C [24]: 4.85%; viability, T/C [25]: 5.28%; viability, T/C [26]: 5.27%; viability, T/C [27]: 5.71%; viability, T/C [28]: 6.45%; viability, T/C [29]: 6.65%; viability, T/C [30]: 2.79% |
| CC1COCCN1c1cc(-c2ccnn2C)c2ccnc(-c3ccn[nH]3)c2n1 (stereo not given) + CC[C@@]1(O)C(=O)OCc2c1cc1n(c2=O)Cc2cc3c(CN(C)C)c(O)ccc3nc2-1 | > 7.50 | > 7.50 | > 7.50 | > 7.50 | > 7.50 | 38.2 | 17.3 | 13.4 | 13.5 | 15 | 15.1 | 16.6 | 11.1 | 9.94 | 10.2 | 12.7 | 14.6 | 12.9 | 11.1 | 10.6 | viability, T/C [16]: 10%; viability, T/C [17]: 11.1%; viability, T/C [18]: 12.1%; viability, T/C [19]: 10.7%; viability, T/C [20]: 8.92%; viability, T/C [21]: 8.64%; viability, T/C [22]: 8.17%; viability, T/C [23]: 8.68%; viability, T/C [24]: 9.11%; viability, T/C [25]: 6.09%; viability, T/C [26]: 5.5%; viability, T/C [27]: 5.49%; viability, T/C [28]: 4.45%; viability, T/C [29]: 4.16%; viability, T/C [30]: 3.75% |
| COc1cc(C)[nH]c(=O)c1CN1CCc2c(Cl)cc(C(OC)C3COC3)c(Cl)c2C1=O (stereo not given) + CC[C@@]1(O)C(=O)OCc2c1cc1n(c2=O)Cc2cc3c(CN(C)C)c(O)ccc3nc2-1 | 6.89 | > 7.50 | > 7.50 | > 7.50 | > 7.50 | 85.9 | 52.9 | 37.2 | 31.9 | 29.3 | 23.8 | 49.9 | 44.4 | 26.1 | 23.6 | 23.3 | 19.6 | 16 | 13.7 | 10.3 | viability, T/C [16]: 11.8%; viability, T/C [17]: 12%; viability, T/C [18]: 9.84%; viability, T/C [19]: 7.14%; viability, T/C [20]: 7.77%; viability, T/C [21]: 7.29%; viability, T/C [22]: 6.9%; viability, T/C [23]: 6.42%; viability, T/C [24]: 6.61%; viability, T/C [25]: 5.24%; viability, T/C [26]: 5.58%; viability, T/C [27]: 5.45%; viability, T/C [28]: 5.13%; viability, T/C [29]: 5.04%; viability, T/C [30]: 4.44% |

Reference: PubChem BioAssay AID1845203 (Molecular Pharmacology Branch, DTP, NCI, 2023)
